Laboratory results: ChEMBL document CHEMBL3045846, “Experimental validation and docking studies of flavone derivatives on aldose reductase involved in diabetic retinopathy, neuropathy, and nephropathy” (Med Chem Res, 2011)

These molecules were tested against Aldo-keto reductase family 1 member B1 (Rattus norvegicus, UniProt P07943) (assay: Inhibition of Rattus norvegicus (rat) aldose reductase isolated from lens using DL-glyceraldehyde as substrate after 30 min by fluorometric analysis).

Compound | IC50 [µM]
O=c1cc(-c2ccc(O)cc2)oc2c([C@@H]3O[C@H](CO)[C@@H](O)[C@H](O)[C@H]3O)c(O)cc(O)c12 [VITEXIN] | 2.03

The molecules below were run against Aldo-keto reductase family 1 member B1 (Bos taurus) (UniProt P16116) (assay: Inhibition of Bos taurus (bovine) aldose reductase isolated from lens using DL-glyceraldehyde as substrate at 1.8 mM by UV-Vis spectrophotometric analysis).

Compound | inhibition [%]
O=c1cc(-c2ccccc2Cl)oc2ccccc12 | 60
Cc1c(Cl)cc2c(=O)cc(-c3ccccc3)oc2c1I | 80
Cc1c(Cl)cc2c(=O)cc(-c3ccc(Cl)cc3Cl)oc2c1I | 80
O=c1cc(-c2ccc(Cl)cc2Cl)oc2c(I)cc(Cl)cc12 | 80
O=c1cc(-c2ccccc2)oc2c(I)cc(Cl)cc12 | 70

The molecules below were run against Aldo-keto reductase family 1 member B1 (Homo sapiens, UniProt P15121) (assay: Inhibition of aldose reductase (unknown origin)).

Compound | IC50 [µM]
O=C(O)/C=C/c1ccc(O)cc1 [COUMARIC ACID] | 0.14
O=c1cc(-c2ccc(O)c(O)c2)oc2cc(O)c([C@@H]3O[C@H](CO)[C@@H](O)[C@H](O)[C@H]3O)c(O)c12 [ISOORIENTIN] | 1.91
COc1cc(-c2cc(=O)c3c(O)cc(O)cc3o2)cc(OC)c1O [TRICIN] | 2.03
